Values quoted from earlier work as cited in patent publication US20240368000A1, “CARBON REMOVAL FROM SEAWATER AND OTHER LIQUIDS USING PHOTOACTIVE COMPOUNDS” (University of Washington, priority 2021, published 2024).

Conditions: ground (dark) state of the photoacid; value from Wimberger et al., Chem. Commun. 2022, 58(37), 5610-5613

## COc1ccc2c(c1)C(C)(C)C(/C=C\c1ccccc1O)=[N+]2CCCC[S@SP3](=O)(=O)[O-] [merocyanine photoacid]
  pKa-Dark: 7.33
